Reference: patent publication US7838496B2, “Template-fixed peptidomimetics as medicaments against HIV and cancer” (Polyphor AG/Ltd., priority 2003, dated 2010)
*1 amine or outer side, *2 acyl side, *3 side chain or, on linkers, in order; H or OH if unused. Where a SMILES comes first, the peptide text is derived from it. Bridges are numbered along the chain shown (N, C = ends). [ ]: non-standard residue; d: D form. NHCH2(1,3-C6H4)CH2CO = O=C(Cc1cccc(CN[*:1])c1)[*:2]; 2Nal = N[C@@H](Cc1ccc2ccccc2c1)C(=O)O; Cit = NC(=O)NCCC[C@H](N)C(=O)O

How the values were obtained:
Type in all cases: cell-based
in vitro = experiment: in vitro
Method: The cytotoxicity of the peptides to HELA cells (Acc57) and COS-7 cells (CRL-1651) was determined using the MTl reduction assay [see ref. 6 and 7, below]. Briefly the method was as follows: HELA cells and COS-7 cells were seeded at 7.0·10^3 and, respectively, 4.5·10^3 cells per well and grown in 96-well microtiter plates for 24 hours at 37° C. at 5% CO2. At this point, time zero (Tz) was determined by MTT reduction (see below). The supernatant of the remaining wells was discarded and fresh medium and the peptides in serial dilutions of 12.5, 25 and 50 μM were pipeted into the wells. Each peptide concentration was assayed in triplicate. Incubation of the cells was continued for 48 hours at 37° C. at 5% CO2. Wells were then washed once with PBS and subsequently 100 μl MTT reagent (0.5 mg/mL in medium RPMI1640 and, respectively, DMEM) was added to the wells. This was incubated at 37° C. for 2 hours and subsequently the medium was aspirated and 100 μl isopropanol was added to each well. The absorbance at 595 nm of the solubilized product was measured (OD595peptide). For each concentration averages were calculated from triplicates. The percentage of growth was calculated as follows: (OD595peptide-OD595Tz-OD595Empty well)/(OD595Tz-OD595Empty well)×100% and was plotted for each peptide concentration.
The LC 50 values (Lethal Concentration, defined as the concentration that kills 50% of the cells) were determined for each peptide by using the trend line function of EXCEL (Microsoft Office 2000) for the concentrations (50, 25, 12.5 and 0 μM), the corresponding growth percentages and the value −50, (=TREND(C50:C0,%50:%0,−50))
(§1) All fine chemicals came from Merck (D)armstadt, Germany).

[1] = tested on: human red blood cells (hRBC); conditions: red cells of human, 1 h
Method: The peptides were tested for their hemolytic activity against human red blood cells (hRBC). Fresh hRBC were washed three times with phosphate buffered saline (PBS) by centrifugation for 10 min at 2000×g. Peptides at a concentration of 100 μM were incubated with 20% v/v hRBC for 1 hour at 37-C. The final erythrocyte concentration was approximately 0.9×10^9 cells per mL. A value of 0% resp. 100% cell lysis was determined by incubation of the hRBC in the presence of PBS alone and respectively 0.1% Triton X-100 in H2O. The samples were centrifuged and the supernatant was 20-fold diluted in PBS buffer and the optical density (OD) of the sample at […] was measured. The 100% lyses value (OD540H2O) gave an OD540 of approximately 1.3-1.8. Percent hemolysis was calculated as follows: (OD540peptide/OD540H2O)×100%.

[2] = tested on: 'CCR5' cells / Hut/4-3 cells co-cultivation; experiment: FIGS-Assay (co-cultivated cell cultures, beta-galactosidase/ONPG read-out); conditions: 48 hours of co-cultivation
Method: The assay was performed according to ref. 5, below. Stock dilutions of the peptides (10 mM) were prepared by dissolving in 10 mM Tris-HCl at room temperature. Stock solutions were kept at +4° C., light protected. Working dilutions were prepared extemporaneously by serial dilution in Phosphate Buffered Saline (PBS) and added in a final volume of 10 μL directly to the cell cultures. After 48 hours of co-cultivation the cultures were rinsed with PBS and then exposed to glutaraldehyde/formaldehyde (0.2%/2%) in PBS for five minutes. For photometric quantification the fixed cultures were subsequently incubated with ortho-nitro-phenyl-galactopyranoside (ONPG) as a O-galactosidase substrate, which was enzymatically converted into the chromophore ortho-nitrophenol (ONP). The read out is directly obtained by measuring optical density of wells at 405 nm in an IEMS 96 well-plate reader.
as §1

CXCR4 = target: T1, CXCR4 (Homo sapiens, UniProt P61073); experiment: Ca2+ assay: CXCR4 antagonizing activity of the peptides; conditions: CXCR4 transfected pre-B cells, Fura-2 fluorescence, 37° C.
T1 construct: expressed in transfected cells
T1 sequence (P61073 whole entry): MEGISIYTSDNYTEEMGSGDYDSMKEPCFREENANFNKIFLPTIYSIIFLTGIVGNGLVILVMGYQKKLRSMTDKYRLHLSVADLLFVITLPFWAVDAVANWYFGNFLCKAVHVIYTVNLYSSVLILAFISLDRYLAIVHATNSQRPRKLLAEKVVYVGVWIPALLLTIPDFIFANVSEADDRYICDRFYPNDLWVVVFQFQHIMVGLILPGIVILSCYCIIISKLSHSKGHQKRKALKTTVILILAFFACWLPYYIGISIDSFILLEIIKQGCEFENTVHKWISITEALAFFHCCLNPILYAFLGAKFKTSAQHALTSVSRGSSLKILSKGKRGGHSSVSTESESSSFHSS
Method: 2.2. Ca^2+− assay: CXCR4Antagonizing Activity of the Peptides
3-4 Mio CXCR4 transfected pre-B cells [see references 1, 2 and 3, below] per measurement were resuspended in 200 μl MSB (20 mM 4-(2-Hyddroxyethyl)-piperazin-1-ethansulfonic acid (HEPES), 136 mM NaCl, 4.8 mM KCl and 1 mM CaCl2) containing 5 mM D-Glucose and were loaded with 0.75 μl of 1 mM Fura-2-acetoxymethylester for 17 minutes at 37° C. The cells were washed free from Fura-2-AM with a platelet centrifuge and resuspended in 800 R1 MSB containing 5 mM D-Glucose. The peptides to be administered were diluted to a 100 fold end concentration in MSB/0.2% PPL, and 8 pl were injected. [Ca^2+ ]i-dependent fluorescence change in response to single or sequential stimulation with the peptide was recorded with a fluorimeter at an excitation wavelength of 340 nm and an end emission wavelength of 510 nm [see ref. 4, below]. Measurements were done under continuous stirring at 37° C. The signal intension was calibrated with 3 mM4 CaCl2/1 nM lonomycin (maximal fura-2-acetoxymethylester saturation) and […] MnCl2 (minimal Fura-2-acetoxymethylester saturation) and [Ca^2+]i-changes are presented in % fura-2-acetoxymethylester saturation.
MSB: 20 nmM HEPES, 136 mM NaCl, 4.8 mM KCl, 1 mM CaCl2.2H2O, pH 7.4; Osmolarity: 310 mOsm adjusted with NaOH or HCl, adjusted with dH2O or PBS.
MSB plus: 5 mM D-glucose in MSB (50 mg/50 mL).
Fura 2-acetoxymethylester: 1 mM stock solution in dimethylsulfoxide.

SMILES: N=C(N)NCCC[C@H](NC(=O)[C@@H]1CSSC[C@H](NC(=O)[C@H](Cc2ccc3ccccc3c2)NC(=O)[C@H](CCCNC(=N)N)NC(=O)[C@@H](N)CCCNC(=N)N)C(=O)N[C@@H](Cc2ccc(O)cc2)C(=O)N[C@@H](CCCCN)C(=O)N[C@H](CCCCN)C(=O)N2CCC[C@H]2C(=O)N[C@@H](Cc2ccc(O)cc2)C(=O)N[C@@H](CCCNC(N)=O)C(=O)N1)C(N)=O [Example 1] (H-RR[2Nal]CYK[dK]PY[Cit]CR-NH2; disulfide 4-11; N-terminus assumed)
- CC50 (in vitro): 75 µM
- Hemolysis at 100 μM [1]: 0.4%

SMILES: N=C(N)NCCC[C@H](NC(=O)[C@@H]1CSSC[C@H](NC(=O)[C@H](Cc2ccc3ccccc3c2)NC(=O)[C@H](CCCNC(=N)N)NC(=O)[C@@H](N)CCCNC(=N)N)C(=O)N[C@@H](Cc2ccc(O)cc2)C(=O)N[C@@H](CCCNC(=N)N)C(=O)N[C@H](CCCCN)C(=O)N2CCC[C@H]2C(=O)N[C@@H](Cc2ccc(O)cc2)C(=O)N[C@@H](CCCNC(N)=O)C(=O)N1)C(N)=O [Example 2] (H-RR[2Nal]CYR[dK]PY[Cit]CR-NH2; disulfide 4-11)
- FIGS % inhibition at 200 nM [2]: 3.8%
- CC50 at 48 h (in vitro): 58 µM
- Hemolysis at 100 μM [1]: 0.9%

SMILES: N=C(N)NCCC[C@H](NC(=O)[C@@H]1CSSC[C@H](NC(=O)[C@H](Cc2ccc3ccccc3c2)NC(=O)[C@H](CCCNC(=N)N)NC(=O)[C@@H](N)CCCNC(=N)N)C(=O)N[C@@H](Cc2ccc(O)cc2)C(=O)N[C@@H](CCCCN)C(=O)N[C@H](CCCCN)C(=O)N2CCC[C@H]2C(=O)N[C@@H](CCCNC(=N)N)C(=O)N[C@@H](CCCNC(N)=O)C(=O)N1)C(N)=O [Example 3] (H-RR[2Nal]CYK[dK]PR[Cit]CR-NH2; disulfide 4-11; N-terminus assumed)
- IC50 (CXCR4): 490 nM
- FIGS % inhibition at 200 nM [2]: 5.7%
- CC50 at 48 h (in vitro): 52 µM
- Hemolysis at 100 μM [1]: 0.7%

SMILES: N=C(N)NCCC[C@H](NC(=O)[C@@H]1CSSC[C@H](NC(=O)[C@H](Cc2ccc3ccccc3c2)NC(=O)[C@H](CCCNC(=N)N)NC(=O)[C@@H](N)CCCNC(=N)N)C(=O)N[C@@H](Cc2ccc(O)cc2)C(=O)N[C@@H](CCCCN)C(=O)N2CCC[C@@H]2C(=O)N2CCC[C@H]2C(=O)N[C@@H](Cc2ccc(O)cc2)C(=O)N[C@@H](CCCNC(=N)N)C(=O)N1)C(N)=O [Example 4] (H-RR[2Nal]CYK[dP]PYRCR-NH2; disulfide 4-11; N-terminus assumed)
- IC50 (CXCR4): 848 nM
- FIGS % inhibition at 200 nM [2]: 26.0%
- CC50 at 48 h (in vitro): > 300 µM
- Hemolysis at 100 μM [1]: 0.3%

SMILES: N=C(N)NCCC[C@H](NC(=O)[C@@H]1CSSC[C@H](NC(=O)[C@H](Cc2ccc3ccccc3c2)NC(=O)[C@H](CCCNC(=N)N)NC(=O)[C@@H](N)CCCNC(=N)N)C(=O)N[C@@H](Cc2ccc(O)cc2)C(=O)N[C@@H](CCCNC(=N)N)C(=O)N2CCC[C@@H]2C(=O)N2CCC[C@H]2C(=O)N[C@@H](Cc2ccc(O)cc2)C(=O)N[C@@H](CCCNC(=N)N)C(=O)N1)C(N)=O [Example 5] (H-RR[2Nal]CYR[dP]PYRCR-NH2; disulfide 4-11; N-terminus assumed)
- IC50 (CXCR4): 132 nM
- FIGS % inhibition at 200 nM [2]: 16.4%
- CC50 at 48 h (in vitro): 67 µM
- Hemolysis at 100 μM [1]: 0.7%

SMILES: N=C(N)NCCC[C@H](NC(=O)[C@@H]1CSSC[C@H](NC(=O)[C@H](Cc2ccc3ccccc3c2)NC(=O)[C@H](CCCNC(=N)N)NC(=O)[C@@H](N)CCCNC(=N)N)C(=O)N[C@@H](Cc2ccc(O)cc2)C(=O)N[C@@H](CCCNC(N)=O)C(=O)N[C@@H](CCCCN)C(=O)N2CCC[C@@H]2C(=O)N2CCC[C@H]2C(=O)N[C@@H](Cc2ccc(O)cc2)C(=O)N[C@@H](CCCNC(=N)N)C(=O)N[C@@H](CCCNC(N)=O)C(=O)N1)C(=O)O [Example 20] (H-RR[2Nal]CY[Cit]K[dP]PYR[Cit]CR-OH; disulfide 4-13)
- IC50 (CXCR4): 15.5 nM
- FIGS % inhibition, At 300 nM ([2]; At 300 nM): At 300 nM: 100%
- CC50 at 48 h (in vitro): 138 µM
- Hemolysis at 100 μM [1]: 0.2%

SMILES: N=C(N)NCCC[C@H](NC(=O)[C@@H]1CSSC[C@H](NC(=O)[C@H](Cc2ccc3ccccc3c2)NC(=O)[C@H](CCCNC(=N)N)NC(=O)[C@@H](N)CCCNC(=N)N)C(=O)N[C@@H](Cc2ccc(O)cc2)C(=O)N[C@@H](CCCNC(N)=O)C(=O)N[C@@H](CCCCN)C(=O)N[C@H]2C[C@H]3C(=O)N[C@@H](CC(=O)N[C@@H](Cc4ccc(O)cc4)C(=O)N[C@@H](CCCNC(=N)N)C(=O)N[C@@H](CCCNC(N)=O)C(=O)N1)C(=O)N3C2)C(N)=O [Example 21]
- FIGS % inhibition at 200 nM [2]: 29.6%
- CC50 at 48 h (in vitro): 82 µM
- Hemolysis at 100 μM [1]: 0.8%

SMILES: N=C(N)NCCC[C@H](NC(=O)[C@@H]1CSSC[C@H](NC(=O)[C@H](Cc2ccc3ccccc3c2)NC(=O)[C@H](CCCNC(=N)N)NC(=O)[C@@H](N)CCCNC(=N)N)C(=O)N[C@@H](Cc2ccc(O)cc2)C(=O)N[C@@H](CCCNC(N)=O)C(=O)N[C@@H](CCCCN)C(=O)NCc2cccc(c2)CC(=O)N[C@@H](Cc2ccc(O)cc2)C(=O)N[C@@H](CCCNC(=N)N)C(=O)N[C@@H](CCCNC(N)=O)C(=O)N1)C(N)=O [Example 22] (H-RR[2Nal]CY[Cit]K[NHCH2(1,3-C6H4)CH2CO]YR[Cit]CR-NH2; disulfide 4-12)
- IC50 (CXCR4): 80.3 nM
- FIGS % inhibition at 200 nM [2]: 22.5%
- CC50 at 48 h (in vitro): 75 µM
- Hemolysis at 100 μM [1]: 0.1%

SMILES: N=C(N)NCCC[C@H](NC(=O)[C@@H]1CSSC[C@H](NC(=O)[C@H](Cc2ccc3ccccc3c2)NC(=O)[C@H](CCCNC(=N)N)NC(=O)[C@@H](N)CCCNC(=N)N)C(=O)N[C@@H](Cc2ccc(O)cc2)C(=O)N[C@@H](CCCNC(N)=O)C(=O)N[C@@H](CCCCN)C(=O)N2CCC[C@H]2C(=O)N2CCC[C@H]2C(=O)N[C@@H](Cc2ccc(O)cc2)C(=O)N[C@@H](CCCNC(=N)N)C(=O)N[C@@H](CCCNC(N)=O)C(=O)N1)C(N)=O [Example 24] (H-RR[2Nal]CY[Cit]KPPYR[Cit]CR-NH2; disulfide 4-13)
- IC50 (CXCR4): 100 nM
- FIGS % inhibition at 200 nM [2]: 17.1%
- CC50 at 48 h (in vitro): 67 µM
- Hemolysis at 100 μM [1]: 1.1%
